Reference: paper PMC10254852, “Design, Synthesis and Anticancer Evaluation of Nitroimidazole Radiosensitisers” (Molecules, 2023)
Converted amounts (≈) assume the structure as drawn. Like-named read-outs stand apart in the source and are kept apart here.

What was measured:
HCT116/54C cells [1] = assay: In vitro cytotoxicity, 4 h exposure oxic/anoxic, 5-day regrowth, sulforhodamine B; type: cell-based, human; conditions: HCT116/54C; for HCR: IC50(oxic)/IC50(anoxic); for IC50: Homo sapiens, 4 h exposure, mean ± SEM, n = 3–4
From the text: (§1) This allowed derivation of hypoxia cytotoxicity ratios (HCR) as IC50(oxic)/IC50(anoxic) in an HCT116 subclone HCT116/54C and two HNSCC cell lines, FaDu and UT-SCC-74B (Table 2).
(§2) HCT116/54C is an HCT116 subline that originated from a mixed culture with UT-SCC-54C cells, which was supplied alongside UT-SCC-74B by Prof. Bradly Wouters (University Health Network, Toronto, ON, Canada). HCT116/54C and UT-SCC-74B cells were passaged in minimum essential media (MEM, ThermoFisher Scientific, Waltham, MA, USA) with 10% foetal calf serum (FCS, Moregate Biotech, Hamilton, New Zealand), 4.5 mg/mL D-glucose (Sigma-Aldrich, St. Louis, MO, USA) and 20 mM HEPES (Sigma-Aldrich). FaDu cells were sourced from American Type Culture Collection and cultured in αMEM (ThermoFisher Scientific) with 10% FCS. All cell lines were confirmed mycoplasma-free by PlasmoTest (InvivoGen, San Diego, CA, USA) and were derived from STR-authenticated cryopreserved stocks. Log-phase cells were seeded into 96-well plates at 800 cells/well for HCT116/54C and 1500 cells/well for FaDu. […] After drug washout, cells were grown and stained as for the oxic IC50 assays. The hypoxic cytotoxicity ratio HCR was determined as HCR = IC50(oxic)/IC50(anoxic).

UT-SCC-74B cells = assay: as above; type: cell-based, human; conditions: for IC50: Homo sapiens, 4 h exposure, mean ± SEM; for HCR: IC50(oxic)/IC50(anoxic)
From the text: as §1, §2

FaDu cells = assay: as above; type: cell-based; conditions: for IC50: Homo sapiens, 4 h exposure, mean ± SEM; for HCR: IC50(oxic)/IC50(anoxic)
From the text: as §1, §2

HCT116/54C cells [2] = assay: In vitro radiosensitisation under anoxia, clonogenic survival; type: cell-based, human; conditions: compound 1 mM, radiation dose for 1% survival/radiation dose for 1% survival with compound, mean ± SEM
Description: Next, we evaluated in vitro radiosensitisation by using a representative subset of nitroimidazole compounds in HCT116/54C cells with a clonogenic survival endpoint. Radiosensitisation was determined by treating cells under anoxia with a range of radiation doses alone and with compounds at equimolar doses (1 mM). Sensitiser enhancement ratios (SER) were calculated as the ratio of radiation dose required for 1% clonogenic survival alone or with compound (Table 3).
Cells were seeded onto 96-well plates at 10^5 cells per well and allowed to attach for 2 h. […] The plates were irradiated (Eldorado 78 ^60Co teletherapy unit, ~2 Gy/min) with 15 Gy under anoxia at room temperature for SR experiments. A metal wedge placed on the top of the metal chamber was used to achieve a graduated radiation dose across the plate, varying from 7 to 29 Gy, calibrated by Fricke dosimetry with ammonium thiocyanate as previously described for SER experiments. The control plate (compound alone, no radiation) was left inside the anaerobic chamber at room temperature during the irradiation period. After treatment, the cells were trypsinized and suspended in usual media + 1% penicillin-streptomycin (ThermoFisher Scientific), and 10-fold serial dilutions were plated for clonogenic survival. After 10 days, plates were stained with methylene blue (2 g/L in EtOH/H2O, 1:1 v/v) and colonies with more than 50 cells were counted. The surviving fraction (SF) was determined as: SF = PE(irradiated)/PE(control) where the plating efficiency (PE) = (No. of colonies)/(No. of cells plated). SF was plotted against radiation dose. Survival ratios (SR) were calculated: SR = (cell survival with radiation)/(cell survival with drug + radiation). Sensitizer enhancement ratios (SER) were calculated: SER = (radiation dose for 1% survival without compound)/(radiation dose for 1% survival with compound).

[3] = set-up: method as in PMID 29253343; conditions: comparison values for earlier alcohols; cited from earlier work
[4] = Solubility in αMEM culture medium (HPLC of saturated solutions); type: physicochemical; conditions: αMEM culture medium with 5% foetal calf serum and 1% DMSO, plasma or biological fluid, kinetic from dmso stock, α-MEM culture medium containing 5% foetal calf serum, 37 °C
[5] = Stability in αMEM culture medium (HPLC after 24 h); type: physicochemical; conditions: after 24 h incubation at 37 °C
Description: The stability of the same solutions after 24 h incubation at 37 °C was measured by HPLC analysis.

[6] = Tolerability at maximum achievable dose, i.v.; type: in vivo; conditions: i.v. injection, NIH-III mice
From the text: The most promising 2-nitroimidazole 34 and 5-nitroimidazole 38 compounds were selected for in vivo evaluation on the basis of solubility, in vitro cytotoxicity and radiosensitisation data. These compounds were both well tolerated by i.v. injection in NIH-III mice at their maximum achievable dose (MAD) of 2.2 mmol/kg. This MAD was also achieved for some of our earlier compounds, but only when we employed a phosphate prodrug strategy owing to their poor solubility. […] The Cmax and AUC exceeded that achieved for earlier phosphate prodrugs 9–12, but was less than 2. On this basis we advanced both morpholine analogues into in vivo radiosensitisation studies.
(§3) Specific pathogen-free six- to eight-week-old female NIH-III mice, bred in the Vernon Jansen Unit, University of Auckland, were used for animal experiments. Animals had ad libitum access to food and water and were maintained in microisolator cages on a 12 h light/dark cycle. All treatments were administered by i.v. injection at a dose of 2.2 mmol/kg and injection volume of 10 mL/kg. Compounds 2, 34 and 38 were administered as solutions in saline containing 1% DMSO or for 9–12 as solutions in saline containing 2 molar equivalents of NaHCO3. Control animals received an i.v. injection of saline at 10 mL/kg. All animal experiments were conducted under the auspices of the University of Auckland Animal Ethics Committee (approval 1781).

HCT116/54C tumours = assay: Tumour radiosensitisation: ex vivo clonogenic assay; type: in vivo, NIH-III mice
Description: as §3
(§4) Compounds were evaluated for in vivo radiosensitisation of hypoxic cells in HCT116/54C and UT-SCC-74B human tumour xenografts using clonogenic survival as an endpoint, using previously report methods. Tumours were grown subcutaneously on the flanks of NIH-III mice by injecting 5 × 10^6 HCT116/54C cells or UT-SCC-74B cells. Once tumours reached a volume of approximately 250 mm^3, mice were randomly assigned to 4 treatment groups and treated with: (A) vehicle control, (B) 10 Gy RAD only, (C) sensitiser only, or (D) sensitiser given before 10 Gy RAD. Drugs were administered as a single i.v. dose at 2.2 mmol/kg. […] Tumours were excised 18 h after treatment, and tumour cells were dissociated enzymatically and plated to determine the number of surviving (clonogenic) cells per gram of tumour tissue. SF and SR were calculated as described above. Statistical significance of drug effects was tested using one-way ANOVA with Sidak tests for multiple comparisons vs. radiation alone (Table 5).

UT-SCC-74B tumours = assay: as above; type: in vivo, NIH-III mice
Description: as §3, §4

[7] = test system: HCT116/54C tumour xenografts; assay: Tumour growth inhibition in combination with radiation; type: in vivo, NIH-III mice; conditions: HCT116/54C tumours
Description: as §3
Compounds were evaluated for their ability to inhibit tumour growth in combination with a single dose of radiation (10 Gy) in HCT116/54C or UT-SCC-74B tumour xenografts on the backs of NIH-III mice. In addition, a fractionated radiation schedule (5 Gy on Days 1, 7 and 14) was explored in HCT116/54C tumour xenografts. Mice were randomly assigned to 4 treatment groups and treated with: (A) vehicle control, (B) 10 Gy RAD only, (C) sensitiser only, or (D) sensitiser given 10 min before 10 Gy RAD. Drugs were administered by i.v. injection at 2.2 mmol/kg either as a single dose or three doses on Days 1, 7 and 14 in the fractionated study. Treatment commenced when the average tumour size reached approximately 250 mm^3, and tumour size was measured until study endpoint. Mice were placed in a custom-built lead-shielded jig that allowed irradiation of the whole tumour but shielded the mouse from radiation. Survival analysis represented the time taken for tumours to increase in relative tumour volume by 4× from the start of treatment (RTV^4). The significance of differences in activity between the groups was assessed by log-rank with Holm–Sidak multiple comparison analysis.

[8] = anoxic, n = 3–4, read-out: IC50 Anoxic
[9] = oxic, n = 3–4, read-out: IC50 Oxic
[10] = 2.2 mmol/kg i.v. 5 min prior to 10 Gy radiation, surviving fraction after radiation/surviving fraction after drug + radiation
[11] = 2.2 mmol/kg i.v. + 10 Gy, one-way ANOVA
[12] = 2.2 mmol/kg i.v., 10 Gy, mechanism experiment (Figure 3)

Row | SMILES | HCR (HCT116/54C cells [1]) | IC50 (HCT116/54C cells [1]; anoxic, read-out: IC50 Anoxic) | IC50 (HCT116/54C cells [1]; oxic, read-out: IC50 Oxic) | IC50 (UT-SCC-74B cells; [8]) | IC50 (UT-SCC-74B cells; [9]) | HCR (UT-SCC-74B cells) | IC50 (FaDu cells; [8]) | IC50 (FaDu cells; [9]) | HCR (FaDu cells) | SER at 1 mM (HCT116/54C cells [2]) | aqueous solubility [3] | solubility [4] | melting point | % Stability in αMEM [5] | other results
1 | O=[N+]([O-])c1nccn1CS(=O)(=O)NCCO [Compound 5] | >21 | 0.29 ± 0.02 mM | > 6.2 mM | 0.24 ± 0.04 mM | 4.3 ± 0.8 mM | 17.7 | 0.23 ± 0.01 mM | 2.3 ± 0.2 mM | 10.0 | 1.72 ± 0.06 | 18 mM (≈ 4.5 mg/mL) |  |  |  | 
2 | O=[N+]([O-])c1cncn1CS(=O)(=O)NCCO [Compound 7] | 3.3 | 1.4 ± 0.1 mM | 4.6 ± 0.3 mM | 1.3 ± 0.04 mM | 4.2 ± 0.9 mM | 3.3 | 1.4 ± 0.02 mM | 5.4 ± 0.7 mM | 4.0 | 1.41 ± 0.02 | 23 mM (≈ 5.76 mg/mL) |  |  |  | 
3 | O=[N+]([O-])c1nccn1CS(=O)(=O)NCC(O)CO (centres unmarked) [Compound 13, N-(2,3-Dihydroxypropyl)-1-(2-nitro-1H-imidazol-1-yl)methanesulfonamide] | 3.5 | 4.1 ± 0.1 mM | 14.5 ± 2.9 mM | 2.6 ± 0.1 mM | 10.3 ± 1.7 mM | 4.0 | 4.3 ± 0.3 mM | 8.7 ± 1.1 mM | 2.0 | 1.00 ± 0.00 |  | 110 mM (≈ 30.8 mg/mL) | 127 to 129 °C | 99.3% | 
4 | O=[N+]([O-])c1nccn1CS(=O)(=O)NC(CO)C(O)CO (centres unmarked) [Compound 14, 1-(2-Nitro-1H-imidazol-1-yl)-N-(1,3,4-trihydroxybutan-2-yl)methanesulfonamide] | 1.3 | 12.6 ± 0.5 mM | 16.4 ± 3 mM |  |  |  | 7.9 ± 1.1 mM | 5.3 ± 1.1 mM | 0.67 | 1.00 ± 0.00 |  | 95.8 mM (≈ 29.7 mg/mL) | 128 to 131 °C | 98.5% | 
5 | O=[N+]([O-])c1nccn1CCNS(=O)(=O)CCO [Compound 17, 2-Hydroxy-N-(2-(2-nitro-1H-imidazol-1-yl)ethyl)ethane-1-sulfonamide] | >5.3 | 3.2 ± 0.2 mM | > 17 mM | 2.9 ± 0.5 mM | > 20 mM | >6.8 | 2.8 ± 0.6 mM | > 18 mM | >6.4 | 1.35 ± 0.02 |  | > 101 mM | 124 to 127 °C | 100.0% | 
6 | O=[N+]([O-])c1cncn1CS(=O)(=O)NCCN1CCOCC1 [Compound 38] | 11.2 | 1.2 ± 0.1 mM | 13.7 ± 2 mM | 1.5 ± 0.3 mM | 13.1 ± 2.8 mM | 8.6 | 1.8 ± 0.1 mM | 10.6 ± 0.6 mM | 5.8 | 1.39 ± 0.01 |  |  |  |  | maximum achievable dose (MAD), well tolerated [6]: 2.2 mmol/kg; Sensitisation Ratio (HCT116/54C tumours; [10]): 3.43; enhancement of tumour killing of radiotherapy (RAD vs drug + RAD) (HCT116/54C tumours; [11]): significantly enhanced the tumour killing of radiotherapy; SR, drug given 5 min before radiation (HCT116/54C tumours; [12]): 8.26; SR, drug given 20 min after radiation (HCT116/54C tumours; [12]): 1.38; Sensitisation Ratio (UT-SCC-74B tumours; [10]): 11.5; enhancement of tumour cell killing by radiotherapy (RAD vs drug + RAD) (UT-SCC-74B tumours; [11]): significantly enhanced tumour cell killing by radiotherapy; survival (time to RTV^4) vs radiation alone ([7]; fractionated radiation, p < 0.05): significantly increased survival compared to radiation alone; tumour growth delay with fractionated radiation ([7]; qw × 3, 5 Gy, 2.2 mmol/kg i.v.): delayed tumour growth relative to radiation alone
